Laboratory results as given in ChEMBL document CHEMBL4627403, “Development of Selective Steroid Inhibitors for the Glucose-6-phosphate Dehydrogenase from Trypanosoma cruzi” (ACS Med Chem Lett, 2020).
Calls of active or inactive are those of the source. No cut-off for these calls is given here.

Experiments:
[1] = biological target: T1, Glucose-6-phosphate 1-dehydrogenase (Homo sapiens, UniProt P11413); test: Inhibition of recombinant human G6PDH expressed in Escherichia coli by fluorescence assay
T1 sequence (P11413 whole entry): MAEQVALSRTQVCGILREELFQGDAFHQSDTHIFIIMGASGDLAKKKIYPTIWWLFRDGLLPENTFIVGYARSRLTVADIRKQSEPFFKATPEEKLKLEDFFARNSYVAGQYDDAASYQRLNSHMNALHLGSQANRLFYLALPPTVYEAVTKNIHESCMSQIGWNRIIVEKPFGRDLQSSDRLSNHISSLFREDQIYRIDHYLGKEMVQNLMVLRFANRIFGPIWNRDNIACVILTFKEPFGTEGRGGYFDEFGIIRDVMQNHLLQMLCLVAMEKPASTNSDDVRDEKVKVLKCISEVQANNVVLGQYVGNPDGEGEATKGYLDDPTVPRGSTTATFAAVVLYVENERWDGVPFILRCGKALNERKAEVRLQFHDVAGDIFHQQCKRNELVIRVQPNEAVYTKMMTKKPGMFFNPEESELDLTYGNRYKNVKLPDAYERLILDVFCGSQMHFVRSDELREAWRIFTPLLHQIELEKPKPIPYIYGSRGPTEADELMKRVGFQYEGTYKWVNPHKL

[2] = Selectivity index, ratio of IC50 for human G6PDH to IC50 for Trypanosoma cruzi G6PDH
[3] = Inhibition of recombinant Trypanosoma cruzi G6PDH expressed in Escherichia coli by fluorescence assay
[4] = biological target: T1, Glucose-6-phosphate 1-dehydrogenase; test: Inhibition of recombinant human G6PDH expressed in Escherichia coli at 80 uM by fluorescence assay
[5] = tested on: Trypanosoma cruzi; test: Antitrypanosomal activity against Trypanosoma cruzi Y amastigotes infected in rat H9C2 cells after 72 hrs by Hoechst 33342 staining based fluorescence microscopy; assay type: functional, organism-based; conditions: H9c2, 72 h
[6] = tested on: H9c2; test: Cytotoxicity against rat H9c2 cells at 20 uM after 72 hrs by Hoechst 33342 staining based fluorescence microscopy; assay type: cell-based; conditions: h9c2, 72 h
[7] = tested on: Trypanosoma cruzi; test: Antitrypanosomal activity against Trypanosoma cruzi Y amastigotes infected in rat H9C2 cells assessed as reduction in parasite infection at 20 uM after 72 hrs by Hoechst 33342 staining based fluorescence microscopy; assay type: functional, organism-based
[8] = tested on: H9c2; test: Cytotoxicity against rat H9c2 cells after 72 hrs by Hoechst 33342 staining based fluorescence microscopy; assay type: cell-based; conditions: H9c2, 72 h
[9] = Selectivity index, ratio of EC50 for cytotoxicity against rat H9C2 cells to EC50 for antitrypanosomal activity against Trypanosoma cruzi Y amastigotes infected in rat H9C2 cells; assay type: toxicity, cell-based; conditions: read-out: Ratio EC50
[10] = tested on: Trypanosoma cruzi; test: Antitrypanosomal activity against Trypanosoma cruzi Y amastigotes infected in rat H9C2 rat cells assessed as reduction in number of infected cells at 10 uM after 72 hrs by Hoechst 33342 staining based fluorescence microscopy; assay type: functional, organism-based

SMILES	IC50 [3] [µM]	Activity [6]	Activity [7]	EC50 [8] [µM]	other results
C[C@]12CC[C@H](OC[C@@H](O)CN3CCOCC3)C[C@@H]1CC[C@@H]1[C@@H]2CC[C@]2(C)C(=O)CC[C@@H]12					IC50 [1]: > 40 µM
CC(C)C(=O)O[C@H]1CC[C@@]2(C)[C@@H](CC[C@@H]3[C@@H]2CC[C@]2(C)C(=O)[C@H](Br)C[C@@H]32)C1	0.15 to 0.38				Ratio IC50 [2]: > 400; inhibition (INH) [4]: Not Active
CC(=O)O[C@H]1CC[C@@]2(C)[C@@H](CC[C@@H]3[C@@H]2CC[C@]2(C)C(=O)[C@H](Br)C[C@@H]32)C1	0.15 to 0.38	Toxic	Active	14.7	EC50 [5]: 8.5 µM; Ratio IC50 [2]: 160; selectivity ratio [9]: 1.7
C[C@]12CC[C@H](OS(C)(=O)=O)C[C@@H]1CC[C@@H]1[C@@H]2CC[C@]2(C)C(=O)[C@H](Br)C[C@@H]12		Toxic	Active	7.5	EC50 [5]: 2.4 µM; Ratio IC50 [2]: 6; selectivity ratio [9]: 3.1; Activity [10]: Active
CO[C@H]1CC[C@@]2(C)[C@@H](CC[C@@H]3[C@@H]2CC[C@]2(C)C(=O)CC[C@@H]32)C1		Non-Toxic	inactive		
CN1CCN(C[C@H](O)CO[C@H]2CC[C@@]3(C)[C@@H](CC[C@@H]4[C@@H]3CC[C@]3(C)C(=O)CC[C@@H]43)C2)CC1					IC50 [1]: > 40 µM
CN1CCN(C[C@@H](O)CO[C@H]2CC[C@@]3(C)[C@@H](CC[C@@H]4[C@@H]3CC[C@]3(C)C(=O)CC[C@@H]43)C2)CC1					IC50 [1]: > 40 µM
C[C@]12CC[C@H](OCCS(=O)(=O)N3CCOCC3)C[C@@H]1CC[C@@H]1[C@@H]2CC[C@]2(C)C(=O)CC[C@@H]12	20				
CN1CCN(CCS(=O)(=O)O[C@H]2CC[C@@]3(C)[C@@H](CC[C@@H]4[C@@H]3CC[C@]3(C)C(=O)CC[C@@H]43)C2)CC1	5	Non-Toxic	inactive		
O=C(Cn1ccnc1[N+](=O)[O-])NCc1ccccc1 [BENZNIDAZOLE]				> 40	Activity [10]: Active
C[C@]12CC[C@H](OC(=O)CN3CCOCC3)C[C@@H]1CC[C@@H]1[C@@H]2CC[C@]2(C)C(=O)CC[C@@H]12	10				
C[C@]12CC[C@H](OS(C)(=O)=O)C[C@@H]1CC[C@@H]1[C@@H]2CC[C@]2(C)C(=O)CC[C@@H]12		Non-Toxic	inactive		Ratio IC50 [2]: 2
C[C@]12CC[C@H](OC[C@H](O)CN3CCOCC3)C[C@@H]1CC[C@@H]1[C@@H]2CC[C@]2(C)C(=O)CC[C@@H]12					IC50 [1]: > 40 µM
C[C@]12CCCC[C@@H]1CC[C@@H]1[C@@H]2CC[C@]2(C)C(=O)[C@H](Br)C[C@@H]12		Toxic	Active	8.4	EC50 [5]: 3.5 µM; selectivity ratio [9]: 2.4
CC(C)CO[C@H]1CC[C@@]2(C)[C@@H](CC[C@@H]3[C@@H]2CC[C@]2(C)C(=O)[C@H](Br)C[C@@H]32)C1		Toxic	Active	12.3	EC50 [5]: 4.2 µM; selectivity ratio [9]: 2.9; Activity [10]: Active
C[C@]12CC[C@H](O)C[C@@H]1CC[C@@H]1[C@@H]2CC[C@]2(C)C(=O)CC[C@@H]12 [EPIANDROSTERONE]		Non-Toxic	inactive		
CN1CCN(CC(=O)O[C@H]2CC[C@@]3(C)[C@@H](CC[C@@H]4[C@@H]3CC[C@]3(C)C(=O)CC[C@@H]43)C2)CC1	10				
C[C@]12CC[C@H](OCC(=O)N3CCOCC3)C[C@@H]1CC[C@@H]1[C@@H]2CC[C@]2(C)C(=O)[C@H](Br)C[C@@H]12		Toxic	Active	5.6	EC50 [5]: 3.2 µM; Ratio IC50 [2]: 5 to 10; selectivity ratio [9]: 1.8
C[C@]12CC[C@H](OC(=O)CCN3CCOCC3)C[C@@H]1CC[C@@H]1[C@@H]2CC[C@]2(C)C(=O)CC[C@@H]12	10				
C[C@]12CC[C@H](O)C[C@@H]1CC[C@@H]1[C@@H]2CC[C@]2(C)C(=O)[C@H](Br)C[C@@H]12 [16.ALPHA.-BROMOEPIANDROSTERONE]		Toxic	Active	13	EC50 [5]: 6.4 µM; Ratio IC50 [2]: 2; selectivity ratio [9]: 2
C[C@]12CC[C@H](OS(=O)(=O)CCN3CCOCC3)C[C@@H]1CC[C@@H]1[C@@H]2CC[C@]2(C)C(=O)CC[C@@H]12	5	Non-Toxic	inactive		
C=CCC(=O)O[C@H]1CC[C@@]2(C)[C@@H](CC[C@@H]3[C@@H]2CC[C@]2(C)C(=O)[C@H](Br)C[C@@H]32)C1	0.15 to 0.38	Toxic	Active	54	EC50 [5]: 16.7 µM; selectivity ratio [9]: 3.2
CN1CCN(CCC(=O)O[C@H]2CC[C@@]3(C)[C@@H](CC[C@@H]4[C@@H]3CC[C@]3(C)C(=O)CC[C@@H]43)C2)CC1	10				
CC(C)C(=O)O[C@H]1CC[C@@]2(C)[C@@H](CC[C@@H]3[C@@H]2CC[C@]2(C)C(=O)CC[C@@H]32)C1	> 3	Non-Toxic	inactive		
CC(=O)O[C@H]1CC[C@@]2(C)[C@@H](CC[C@@H]3[C@@H]2CC[C@]2(C)C(=O)CC[C@@H]32)C1	> 3	Non-Toxic	inactive		
C[C@]12CC[C@H](OCCS(=O)(=O)N3CCOCC3)C[C@@H]1CC[C@@H]1[C@@H]2CC[C@]2(C)C(=O)[C@H](Br)C[C@@H]12		Toxic	Active	8.5	EC50 [5]: 2.4 µM; Ratio IC50 [2]: 5 to 10; selectivity ratio [9]: 3.5; Activity [10]: Active
C=CCC(=O)O[C@H]1CC[C@@]2(C)[C@@H](CC[C@@H]3[C@@H]2CC[C@]2(C)C(=O)CC[C@@H]32)C1	> 3	Non-Toxic	inactive		
